Data on nine compounds can be found in patent US20140378380A1, “USE OF UNACYLATED GHRELIN, FRAGMENTS AND ANALOGS THEREOF AS ANTIOXIDANT” (Alizé Pharma SAS, priority 2013, published 2014).

Ends that are not written are not given here. * marks the point of attachment. Octanoyl = CCCCCCCC(=O)*

One test concerns primary SCs. The test can be described thus: Primary SCs from normo-perfused muscles subjected to in vitro ischemia. Type of test: cell-based, mice. The conditions noted are these: SB202190 1 μmol/L added; in vitro ischemia. How it is done:
(§1) SCs were isolated from gastrocnemius muscles of C57BL/6J wild type mice subjected to ischemia or C57BL/6J mice lacking the GHSR1a and ghrelin genes (10 mice, kind gift of Professor M. Tschöp)^39. To obtain SCs, muscle samples were subjected to enzymatic digestion as described^45. In selected experiments, SCs were recovered from normo-perfused muscles and subjected to in-vitro ischemia in presence of saline, AG (1 μmol/L) or UAG (1 μmol/L). In-vitro ischemia was induced by incubating cells in DMEM+2% FCS at 5% CO2/95% N2 humidified atmosphere, yielding 1% O2 concentrations for 24 h^18. The in-vitro ischemia was also performed in the presence of SB202190 (1 μmol/L).
(§2) SC cell-cycle progression was evaluated by evaluating the percentage of PCNA-positive cells or by FACS analysis as previously described^46. The percentage of cells in each cell cycle phase was determined by ModFit LT software (Verity Software House. Inc, topsham, ME, USA). Celss proliferation was also assayed by evaluating the percentage of PCNA-positive cells by FACS analysis.
(§3) Cells were lysed and protein detection was obtained as previously described^47. Cells were lysed (50 mmol/L Tris HCl [pH 8.3], 1% Triton X-100, 10 mmol/L PMSF, 100 U/ml aprotinin, 10 μmol/L leupeptin) and protein concentrations were obtained as previously described^47. […] Densitometric analysis was used to calculate the differences in the fold induction of protein levels and normalized to tubulin, a actin or p38MAPK content. Values are reported as relative amount
(§4) Intracellular ROS production was evaluated using DCF-DA (5-(and-6)-carboxy-2′,7′-dichlorofluorescein diacetate, […] final concentration) (Molecular Probe, Invitrogen) assay as previously described^23. The formation of TBARS was determined in muscles using the OXI-TEK kit (ZeptoMetrix Corp.) and a luminescence spectrometer (Bio-Rad Laboratories, Hercules, Calif.) with excitation set at 530 nm, emission at 550 nm to measure in-vivo oxidative stress levels^33.
Total RNA was isolated using TRIzol reagent (Invitrogen) from SCs recovered from muscles of treated animals or from SCs subjected to in-vitro ischemia. miR-221/222 expression was evaluated by qRT-PCR as previously described^48. Loss-of-function experiments were performed in SCs transfected for 48 h with anti-miRNA negative control, anti-miR-221/222 antagonists (Applied Biosystem, Foxter Cyto CA, USA), according to the manufacturer's instructions^48.
To obtain SOD-2 inactivation, SCs were transiently transfected with siRNA for SOD-2 or with duplex siRNAs (Qiagen, Valencia, Calif., USA) as previously described^44. Transfection was performed according to the manufacturer's instructions. Whole cell extracts were processed 48 h after transfection. Cell viability was evaluated at the end of each experiment. […]

The subject of another test is SCs from double KO mice. As to the kind of experiment: SCs from double KO mice (lacking GHSR1a and ghrelin genes) subjected to in vitro ischemia. Type of test: cell-based. The conditions noted are these: DCF-DA. How it is done:
as §1, §2, §3, §4

Another test concerns C57BL/6J mice. As to the kind of experiment: Murine hind-limb ischemia model (foot damage score, histology, IF, TBARS). Type of test: in vivo. How it is done:
Male C57BL/6J mice (Charles River Lab., Wilmington, Mass., USA) were anesthetized and unilateral hind limb ischemia was induced as described^42. The normo-perfused contralateral limb of each mouse was used as an internal control. After hind-limb ischemia, animals (18 mice per group) were treated by intra-peritoneal injection daily from 0 to day 21 with either saline, AG ([…]) or UAG ([…]). In selected experiments, mice received intramuscular injections of pre-miR oligonucleotides (5 mice/group). To induce toxic damage, 100 μl of 1% barium chloride (BaCl2, Sigma Aldrich) was injected unilaterally into the hind limb (9 mice). Mice were treated according to European Guidelines and policies as approved by the University of Turin Ethical Committee.
Semiquantitative estimation (by repeated measures analyzed with ANOVA and Newman-Keuls Multiple Comparison test) of foot damage was performed serially using the following classification: 3=dragging of foot (foot necrosis), 2=no dragging but no plantar flexion (foot damage), 1=plantar flexion but no toe flexion (toe damage), and 0=flexing the toes to resist gentle traction on the tail (no damage)^43.
Gastrocnemius muscle sections from ischemic or normo-perfused limbs were stained with hematoxylin and eosin for histological analysis. The proportion of fibers with central nuclei (regenerating fibers) was measured by MetaMorph software (Life Sciences Research Imaging Systems) in the injured area and the cross-sectional areas of the fibers in the injured and non-injured areas. For IF analysis, muscle sections were processed as described previously^44. The number of cells expressing the indicated markers or CD31 positive vessels was evaluated as previously described^34.
as §4

The conditions of test [1]: U.S. Pat. Nos. 8,222,217 and 8,318,664; cited from earlier work.
Test [2] relates to C2C12 mouse muscular cell line. The test can be described thus: ROS production (DCF-DA) in C2C12 cells subjected to oxidative stress. Type of test: cell-based. The following applies: for protective effect on C2C12 cells against oxidative stress: oxidative stress by hypoxia, AGEs, hyperglycemia or H2O2, 1 μmol/L; for retention of the functions of UAG: results provided herein. How it is done: Kinetic analysis of ROS production was evaluated by using DCF-DA (5-(and-6)-carboxy-2′,7′-dichlorofluorescein diacetate, 0.5 μmol/L final concentration) (Molecular Probe, Invitrogen) assay. C2C12 cells were cultured with 400 μg/ml Advanced Glycated End-product (AGE) or 25 mM glucose (high glucose HG) for 48 h, H2O2 (100 μM) for 2 h. In parallel experiments C2C12 cells were subjected to hypoxia (DMEM+2% FCS in a 5% CO2-95% N2 humidified atmosphere, yielding to 1% O2 concentrations for 24 h). UAG (1 μmol/L) AZP 531 (1 μmol/L) or AZP-502 (1 μmol/L) was added where indicated.

With `Oc1ccc(-c2nc(-c3ccncc3)c(-c3ccc(F)cc3)[nH]2)cc1` [SB202190, reference compound], in the test with primary SCs, the “MyoD and myogenin expression in SCs exposed to UAG” value is “prevented MyoD and myogenin expression”; the “cell-cycle entry of SCs exposed to UAG” value is on record as “blocked cell-cycle entry”.
“AG: 28 amino acid peptide characterized by the presence of an n-octanoyl modification on the Ser3 residue (GSS(Octanoyl)FLSPEHQRVQQRKESKKPPAKLQPR; UniProt Q9UBU3 24-51, looked up) [reference compound]”: the “protection of SCs from ROS generation” value with SCs from double KO mice is listed as “unlike AG”. Moreover, the “concentration of TBARS in ischemic muscles” value in the test with C57BL/6J mice (gastrocnemius muscle) is on record as “Significant increases”. Further, the “capillary density, ischemic vs contralateral control muscle of the same animals” value with C57BL/6J mice (ischemic vs normo-perfused muscle) is given as “significantly lower capillary density”. Also, the “protection against ischemia-induced damage (in vivo effects)” value in the test with C57BL/6J mice (overall conclusion) is reported as “failure to detect in vivo effects”. Also, the “foot damage (functional score)” value in the test on C57BL/6J mice (unilateral hind-limb ischemia, i.p. daily from day 0 to day 21, vs saline) was “significantly higher”.
Regarding EHQRVQ [UAG (8-13)], the “activity on glucose, insulin and lipid metabolisms relative to UAG full length” value in test [1] was “retain the activity of UAG full length”.
As to “Glu-His-Gln-Arg (EHQR; listed as Homo sapiens) [UAG (8-11)]”, the “activity on glucose, insulin and lipid metabolisms relative to UAG full length” value in test [1] is “retain the activity of UAG full length”.
For “Glu-His-Gln-Arg-Val (EHQRV; listed as Homo sapiens) [UAG (8-12)]”, in test [1], the “activity on glucose, insulin and lipid metabolisms relative to UAG full length” value was “retain the activity of UAG full length”.
On to “His-Gln-Arg (HQR; listed as Homo sapiens) [UAG (9-11)]”, for which the “activity on glucose, insulin and lipid metabolisms relative to UAG full length” value in test [1] is listed as “retain the activity of UAG full length”.
On to “His-Gln-Arg-Val (HQRV; listed as Homo sapiens) [UAG (9-12)]”, for which the “activity on glucose, insulin and lipid metabolisms relative to UAG full length” value in test [1] is reported as “retain the activity of UAG full length”.
Take SPEHQRVQ [UAG (6-13)]: in test [1], the “activity on glucose, insulin and lipid metabolisms relative to UAG full length” value was “retain the activity of UAG full length”. In addition, in test [2], the “protective effect on C2C12 cells against oxidative stress” value is recorded as “have a protective effect” and the “retention of the functions of UAG” value is “retain the functions of UAG”.
In the case of “Ser-Pro-Glu-His-Gln-Arg-Val-Gln (cycl) (SPEHQRVQ; cyclic; (1)..(8) Cyclic; listed as Homo sapiens) [UAG(6-13)cyclic]”, in test [2], the “protective effect on C2C12 cells against oxidative stress” value is reported as “have a protective effect” and the “retention of the functions of UAG” value was “retain the functions of UAG”.
